Results on 1 compound are retold here after ChEMBL document CHEMBL6071160, “Identification of a novel 10-hydroxyevodiamine prodrug as a potent topoisomerase inhibitor with improved aqueous solubility for treatment of hepatocellular carcinoma” (Eur J Med Chem, 2024).

Data set [1] can be described thus: Drug resistance index, ratio of IC50 for antiproliferative activity against human SMMC-7721 cells to antiproliferative activity against human Doxorubicin-resistant SMMC-7721 cells. Format: functional.
A short description of data set [2]: Prodrug conversion in rat plasma assessed as half life by measuring parent 10-hydroxyevodiamine derivative release by HPLC analysis. In kind it is ADME, cell-free.
Data set [3] deals with SK-HEP1. Description: Induction of cell cycle arrest in human SK-HEP1 cells assessed as accumulation of cells at G2 phase 80 nM measured after 24 hrs by flow cytometric assay (reference value: 22.41%). In kind it is functional. (A flow cytometer gives signals particle by particle.)
Data set [4] concerns SK-HEP1. As to the kind of experiment: Induction of cell cycle arrest in human SK-HEP1 cells assessed as accumulation of cells at G2 phase 20 nM measured after 24 hrs by flow cytometric assay (reference value: 22.41%). In kind it is functional.
In data set [5] the test system is SK-HEP1. Description: Induction of apoptosis in human SK-HEP1 cells assessed as early apoptotic cells at 20 nM measured after 24 hrs by Annexin-V-FITC/PI analysis (reference value: 1.45%). In kind it is functional.
For data set [6], the system named is SK-HEP1. As to the kind of experiment: Inhibition of cell invasion in human SK-HEP1 cells assessed as decrease in number of cells migration into lower compartment at 40 nM measured after 24 hrs by transwell assay. Format: functional, cell-based.

Molecules are shown by their SMILES. Activity calls are given as the source filed them. The calls are words filed in the database; no cut-off is given here.

Consider `C[N+](C)(C)CCC(=O)Oc1ccc2[nH]c3c(c2c1)CCN1C(=O)c2cc(F)cc(F)c2N(c2cccc(F)c2)C31.[I-]` (stereo unspecified), for which the Ratio in data set [1] amounted to 1.2. In addition, the t1/2 in data set [2] came out at 30 min. Also, the figures for the Activity in the data set on SK-HEP1 [3], with SK-HEP1 [4] and in the data set on SK-HEP1 [5] were 68.55%, 23.61% and 1.59%, respectively. The inhibition entry with SK-HEP1 [6] was “Active”.
